# Test results published in patent EP4349409A1, “COMPOUNDS FOR THE MANAGEMENT OF CELL STEMNESS AND INVASION IN CANCER AND RELATED DISEASES” (Instituto Biomar S.A., priority 2022, dated 2024).
# Legend:
# GNSC = experiment: Immunostaining for Nestin, Tuj1 and GFAP (differentiation) in GNSC; assay type: cell-based; conditions: 4.5 µM
# Protocol: Moreover, we asked whether BMT9, at IC50 concentration, induced differentiation of these GNSC. For these experiments, cells were seeded under proliferation conditions and treated with BMT9 at 4.5 µM for 72 h. Cells were fixed with 3.7% paraformaldehyde for 15 min and immunostained with Nestin, Tuj1 and GFAP specific antibodies. Samples were analyzed using a Zeiss LSM800 confocal microscopy. To quantify the percentage of neural (Tuj-1) (Figure 7D) and astrocytic (GFAP+) (Figure 7E) differentiated cells, positive cells for each marker were manually counted and compared with the total number of cells.
# CD133 = CD133 stemness marker flow cytometry in G144 cells; assay type: cell-based, human; conditions: G144, 48 hours; BMT9 4.5-9 µM, TMZ 500 µM, BCNU 250 µM
# Protocol: Next, we asked if BMT9 treatment at IC50 could specifically affect the stemness of GNSC. To address this point, cells were seeded and treated 24 h later with BMT9 (4.5-9 µM), TMZ (500 µM) or BCNU (250 µM). After 48 hours of treatment, cells were collected and stained with a CD133 (stemness marker) antibody (AC133, Milyenty Biotec) or the corresponding Ig-isotype control. Flow cytometric analysis were performed with the previously mentioned equipment.
# [1] = Maximum Tolerated Dose after intraperitoneal administration; conditions: mouse, in vivo, ip; female C57BL/6 mice, single intraperitoneal dose, seven days
# Protocol: The Maximum Tolerated Dose (MTD) and Pharmacokinetics (PK) of BMT9 were determined after intraperitoneal administration to female C57BL/6 (~25 g) mice.
# C57BL/6 female mice (9-13 weeks in age) were administered intraperitoneally with a single dose of BMT9 at 35, 50, 75, 100 or 200 mg/Kg. Total of 3 animals were used for each independent serial sampling experiment. The compound was dissolved in an appropriate vehicle (Cremophor:EtOH:H20 1:1:8). Body weight, distress and survival were monitored 1, 2, 4 hours and 8 hours post-administration and every day during the whole observation period. The MTD was set on the dose below the first dose that caused severe loss of body weight (>20%) or death of one or more animals of a dose group seven days after treatment. The MTD of BMT9 was therefore set on about 140 mg/kg. The concentrations of BMT9 in plasma was determined at different times per duplicate using a previously validated analytical method. The compound was injected via i.p at 100 mg/kg. Total of 3 animals were used for each independent serial sampling experiment. Blood samples were collected at 5, 15, 30 min, 1, 4, 10, 24, and 48 hours from each animal via cardiac puncture; […] withdrawn at each time point. 25 microliters of blood sample were then used for quantitative bioanalysis by HPLC-MS/MS. […]
# T98G = experiment: MTT-based cytotoxicity assay, T98G; assay type: cell-based; conditions: Homo sapiens, 72 h
# Protocol: A dose-response analysis of BMT9 (concentrations ranging from 4.5 µM-18 µM), BCNU (from 150 µM-500 µM) and TMZ (350 µM-700 µM) was performed in two conventional glioblastoma cell lines (T98G, U373) and the GNS cell line G144 by MTT-based cytotoxicity assays (Figure 5A-D). Cells were seeded on p96-well plates and treated with the different compounds for 72 h. Then, the MTT reagent (3-(4,5-Dimethyl-2-thiazolyl)-2,5-diphenyl-2H-tetrazolium bromide diluted in PBS to a concentration of 1mg/ml), was added to each well to a final concentration of 0.33mg/ml, and incubated for 3 h at 37°C. After that, the media was removed, and formazan crystals were solubilized with DMSO. Absorbance was measured at 560 nm using a "Synergy HT" plate reader (Biotek). In the graphs, the Y axis represents the percentage of cell viability relative to non-treated cells. The IC50, when reached are marked by a rectangle. DMSO treatment had no effect on cell viability.
# P1-TP73 promoter = experiment: P1-p73-Fluc-DsRed reporter screening of natural compounds in U373 cells; assay type: cell-based, human; conditions: U373, 8 µg/ml, 48 h after treatment
# Protocol: The conventional GB cell line U373 was used to perform a low-throughput chemical screen to identify P1-TP73-promoter regulators from a panel of 51 natural compounds with novel chemical structures (BMT-1 to BMT-51). Cells were seeded on black microplates and 24 h later they were transfected with 1 µg of P1-p73-Fluc-DsRed plasmid using Lipofectamine 3000™ reagent (ThermoFisher) following the manufacturer's instructions. Six hours later, transfected cells were treated either with 8 µg/ml of any of the tested compounds or with the drugs used as first line glioblastoma treatment: the methylating agent temozolomide (TMZ) and the chloroethyl-derivative of nitrosourea carmustine (BCNU), or equivalent volumes of DMSO. […] The compound BMT18 was also found to have autofluorescence.
# [2] = system: transcript levels originated from the P1-TP73 promoter (TAp73, ΔEx2p73 and ΔEx2/3p73); experiment: qRT-PCR of P1-TP73 promoter transcripts in G144 cells; assay type: cell-based, human; conditions: G144, 72 h, dose dependent
# Description: As before, all isoforms were reduced by treatment, with TAp73 and ΔEx2/3p73 being the predominant isoforms, while ΔN'p73 was barely detected (Figure 4A). Ribosomal RNA 18S was used as housekeeping control, and all expression levels were normalized to the TAp73 NT value.
# [3] = system: p73 transcripts originated from the P1 promoter (TAp73, ΔEx2p73, ΔEx2/3p73); experiment: qRT-PCR of p73 transcripts from the P1 promoter in U373 cells; assay type: cell-based, human; conditions: U373, same conditions as screening, 18S control
# Protocol: Expression levels of TAp73 (Figure 2C), ΔEx2p73 (Figure 2D) and ΔEx2/3p73 (Figure 2E) were determined by qRT-qPCR using 18S ribosomal RNA as housekeeping control, and all the expression values were normalized to TAp73 expression in non-treated cells (NT). […] The amino-truncated isoforms that are tumor-specific are vigorously expressed in advanced stages across a variety of highly aggressive human cancers (Knoll et al., 2011; Steder et al., 2013; George et al., 2015; Meier et al., 2016) and promote tumor initiation (Tannapfel et al., 2008) and cancer progression (Engelmann et al., 2015). Moreover, there is a somatic genomic rearrangement of TP73 that generates an oncogenic Ex2/3p73 in small cell lung cancer (George et al., 2015). BMT9 represses the activity of the P1-TP73 promoter, therefore it would be expected to downregulate the expression of any of the isoforms generated from this promoter in a given cell.
structure (smiles),measurement,setting,value
C=C1C2CCC(C)(C3COc4c(C)c(OC)c5c(c4C3O)C(O)OC5=O)C1CCC2(C)C (stereo not shown) [BMT9],expression of the stem cell marker Nestin,GNSC; 72 h (data not shown),reduced the expression of the stem cell marker Nestin
same,neural differentiation (Tuj1 and GFAP positive cells),"GNSC; 72 h, proliferating culture conditions",induced neural differentiation
same,CD133 expression levels (Mean Fluorescence Intensity),CD133,significantly reduced
same,percentage of CD133 positive cells,CD133,significantly reduced
same,MTD at 168 h,[1],~140 mg/kg
same,IC50,T98G,> 9 µM
same,P1-TP73-promoter activity (fluorescence normalized to DMSO exposed cells),P1-TP73 promoter,strongest and most reproducible repressive effect
same,pre-selection: modulatory effect of a 2-fold fluorescence increase or a 0.5-fold reduction,P1-TP73 promoter; direction per compound not given,pre-selected
same,"transcript levels originated from the P1-TP73 promoter (TAp73, ΔEx2p73 and ΔEx2/3p73)",[2],downregulated
same,"expression levels of TAp73, ΔEx2p73 and ΔEx2/3p73",[3],reduced them all
